In ChEMBL document CHEMBL4613266, “Discovery and Structure Relationships of Salicylanilide Derivatives as Potent, Non-acidic P2X1 Receptor Antagonists” (J Med Chem, 2020):

Columns and labels:
Format in all cases: cell-based
P2X purinoceptor 4 = target: T1, P2X purinoceptor 4 (Homo sapiens, UniProt Q99571); assay: Antagonist activity at human P2X4 receptor expressed in human 1321N1 cells assessed as inhibition of ATP-induced cytosolic calcium influx preincubated for 30 mins followed by ATP addition by Fluo-4 AM dye-based fluorescence assay
T1 sequence (Q99571 whole entry): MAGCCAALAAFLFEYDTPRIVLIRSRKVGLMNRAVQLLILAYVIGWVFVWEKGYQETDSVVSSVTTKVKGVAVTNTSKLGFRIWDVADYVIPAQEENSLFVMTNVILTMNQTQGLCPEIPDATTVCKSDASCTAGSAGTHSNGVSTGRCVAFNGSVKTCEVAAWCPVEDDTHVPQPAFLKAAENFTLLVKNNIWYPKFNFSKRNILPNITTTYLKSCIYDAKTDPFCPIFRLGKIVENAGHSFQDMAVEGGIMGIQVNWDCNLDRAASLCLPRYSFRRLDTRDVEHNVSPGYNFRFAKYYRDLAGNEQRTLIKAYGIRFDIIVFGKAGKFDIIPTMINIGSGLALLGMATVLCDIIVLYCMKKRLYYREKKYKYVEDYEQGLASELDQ

P2X purinoceptor 3 = target: T2, P2X purinoceptor 3 (Homo sapiens, UniProt P56373); assay: Antagonist activity at human P2X3 receptor expressed in human 1321N1 cells assessed as inhibition of ATP-induced cytosolic calcium influx preincubated for 30 mins followed by ATP addition by Fluo-4 AM dye-based fluorescence assay
T2 sequence (P56373 whole entry): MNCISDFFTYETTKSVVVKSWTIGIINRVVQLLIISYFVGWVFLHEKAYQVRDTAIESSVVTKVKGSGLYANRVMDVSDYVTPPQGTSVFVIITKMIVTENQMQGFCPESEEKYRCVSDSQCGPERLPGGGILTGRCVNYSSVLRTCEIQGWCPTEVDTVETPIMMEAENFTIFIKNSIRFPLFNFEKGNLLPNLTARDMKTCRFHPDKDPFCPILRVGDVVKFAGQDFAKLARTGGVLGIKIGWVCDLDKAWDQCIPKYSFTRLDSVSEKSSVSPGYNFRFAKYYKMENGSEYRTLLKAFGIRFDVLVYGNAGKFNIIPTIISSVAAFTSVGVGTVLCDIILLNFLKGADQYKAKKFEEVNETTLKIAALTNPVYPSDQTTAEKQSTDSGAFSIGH

P2X purinoceptor 2 = target: T3, P2X purinoceptor 2 (Homo sapiens, UniProt Q9UBL9); assay: Antagonist activity at human P2X2 receptor expressed in human 1321N1 cells assessed as inhibition of ATP-induced cytosolic calcium influx preincubated for 30 mins followed by ATP addition by Fluo-4 AM dye-based fluorescence assay
T3 sequence (Q9UBL9 whole entry): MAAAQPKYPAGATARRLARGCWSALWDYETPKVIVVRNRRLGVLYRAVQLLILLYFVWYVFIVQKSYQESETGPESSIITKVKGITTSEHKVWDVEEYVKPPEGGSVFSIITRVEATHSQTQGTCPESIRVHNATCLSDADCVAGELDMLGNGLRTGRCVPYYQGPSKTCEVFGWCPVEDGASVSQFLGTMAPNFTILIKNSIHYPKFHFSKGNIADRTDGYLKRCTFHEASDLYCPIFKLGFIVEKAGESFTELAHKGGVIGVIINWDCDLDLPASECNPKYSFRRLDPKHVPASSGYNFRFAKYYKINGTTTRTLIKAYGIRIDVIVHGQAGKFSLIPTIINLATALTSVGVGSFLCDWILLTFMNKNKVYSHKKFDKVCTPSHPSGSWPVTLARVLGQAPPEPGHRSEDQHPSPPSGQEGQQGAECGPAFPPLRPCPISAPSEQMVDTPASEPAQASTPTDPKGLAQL

P2X purinoceptor 7 = target: T4, P2X purinoceptor 7 (Homo sapiens, UniProt Q99572); assay: Antagonist activity at human P2X7 receptor expressed in human 1321N1 cells assessed as inhibition of ATP-induced cytosolic calcium influx preincubated for 30 mins followed by ATP addition by Fluo-4 AM dye-based fluorescence assay
T4 sequence (Q99572 whole entry): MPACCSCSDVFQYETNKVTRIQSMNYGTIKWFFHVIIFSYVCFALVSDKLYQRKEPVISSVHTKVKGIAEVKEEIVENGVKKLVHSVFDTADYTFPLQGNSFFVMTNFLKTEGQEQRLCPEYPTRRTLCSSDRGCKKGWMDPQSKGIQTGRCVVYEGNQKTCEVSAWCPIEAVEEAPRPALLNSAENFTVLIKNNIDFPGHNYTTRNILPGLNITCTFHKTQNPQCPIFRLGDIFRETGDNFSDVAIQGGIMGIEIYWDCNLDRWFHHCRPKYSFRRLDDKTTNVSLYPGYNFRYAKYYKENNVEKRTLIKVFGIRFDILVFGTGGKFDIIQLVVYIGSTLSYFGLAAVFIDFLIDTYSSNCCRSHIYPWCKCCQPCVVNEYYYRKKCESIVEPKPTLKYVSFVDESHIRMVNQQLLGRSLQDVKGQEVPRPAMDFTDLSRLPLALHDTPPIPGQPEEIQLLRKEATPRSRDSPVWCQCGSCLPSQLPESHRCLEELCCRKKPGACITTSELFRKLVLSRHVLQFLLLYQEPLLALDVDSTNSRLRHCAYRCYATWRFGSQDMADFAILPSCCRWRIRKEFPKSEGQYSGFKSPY

[1] = target: T5, P2X purinoceptor 1 (Homo sapiens) (UniProt P51575); assay: Antagonist activity at non-desensitizing human P2X1 receptor ( P2X2/P2X1 chimera) expressed in human 1321N1 cells assessed as inhibition of ATP-induced calcium influx at 10 uM pre-incubated for 30 mins before ATP stimulation by FLIPR assay relative to control
T5 sequence (whole entry): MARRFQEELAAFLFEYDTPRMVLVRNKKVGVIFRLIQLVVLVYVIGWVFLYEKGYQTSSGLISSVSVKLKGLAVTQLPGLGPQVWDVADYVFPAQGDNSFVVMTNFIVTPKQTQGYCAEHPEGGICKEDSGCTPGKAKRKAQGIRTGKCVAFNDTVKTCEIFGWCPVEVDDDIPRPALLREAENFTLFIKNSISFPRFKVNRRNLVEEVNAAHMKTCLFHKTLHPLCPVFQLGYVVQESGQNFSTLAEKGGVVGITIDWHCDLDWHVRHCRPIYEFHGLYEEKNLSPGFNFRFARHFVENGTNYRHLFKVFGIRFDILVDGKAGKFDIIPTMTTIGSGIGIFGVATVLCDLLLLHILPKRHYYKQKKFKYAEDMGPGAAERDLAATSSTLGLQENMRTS

[2] = target: T6, P2X purinoceptor 3 (Homo sapiens) (UniProt P56373); assay: Antagonist activity at human P2X3 receptor expressed in human 1321N1 cells assessed as inhibition of ATP-induced cytosolic calcium influx at 10 uM preincubated for 30 mins followed by ATP addition by Fluo-4 AM dye-based fluorescence assay relative to control
T6 sequence (whole entry): T2 sequence (P56373 whole entry)

P2X purinoceptor 1 = P2X purinoceptor 1 (Homo sapiens, UniProt P51575); assay: Antagonist activity at non-desensitizing human P2X1 receptor ( P2X2/P2X1 chimera) expressed in human 1321N1 cells assessed as inhibition of ATP-induced calcium influx pre-incubated for 30 mins before ATP stimulation by FLIPR assay relative to control
[3] = target: T7, P2X purinoceptor 2 (Homo sapiens) (UniProt Q9UBL9); assay: Antagonist activity at human P2X2 receptor expressed in human 1321N1 cells assessed as inhibition of ATP-induced cytosolic calcium influx at 10 uM preincubated for 30 mins followed by ATP addition by Fluo-4 AM dye-based fluorescence assay relative to control
T7 sequence (whole entry): T3 sequence (Q9UBL9 whole entry)

| Structure (SMILES) | inhibition [1] | IC50 (P2X purinoceptor 1) | other results |
| --- | --- | --- | --- |
| O=C(Nc1cc(C(F)(F)F)cc(C(F)(F)F)c1)c1ccccc1O | 79% | 76.9 nM | IC50 (P2X purinoceptor 4): 155 nM; IC50 (P2X purinoceptor 3): > 10000 nM; IC50 (P2X purinoceptor 2): > 10000 nM; IC50 (P2X purinoceptor 7): 315 nM; inhibition [2]: 30%; inhibition [3]: 15% |
| O=C(Nc1cc(C(F)(F)F)cc(C(F)(F)F)c1)c1c(O)cccc1O | 75% | 8000 nM | – |
| O=C(Nc1cc(C(F)(F)F)cc(C(F)(F)F)c1)c1ccccc1Cl | 100% | 539000 nM | – |
| O=C(Nc1cc(C(F)(F)F)cc(C(F)(F)F)c1)c1ccncc1O | 60% | 5250 nM | – |
| Cc1ccc(O)c(C(=O)Nc2cc(C(F)(F)F)cc(C(F)(F)F)c2)c1 | 91% | 236 nM | – |
| COc1ccc(O)c(C(=O)Nc2cc(C(F)(F)F)cc(C(F)(F)F)c2)c1 | 91% | 755 nM | – |
| Nc1ccccc1C(=O)Nc1cc(C(F)(F)F)cc(C(F)(F)F)c1 | 67% | 9930 nM | – |
| O=C(Nc1cccc(S(=O)(=O)C(F)(F)F)c1)c1cc(Cl)ccc1O | 83% | 335 nM | – |
| O=C(Nc1cc(C(F)(F)F)cc(C(F)(F)F)c1)c1cccc(O)c1 | 100% | 4910 nM | – |
| CN(C(=O)c1cc(Cl)ccc1O)c1cc(C(F)(F)F)cc(C(F)(F)F)c1 | 88% | 4060 nM | – |
| O=C(Nc1cc(C(F)(F)F)cc(C(F)(F)F)c1)c1cc(O)ccc1O | 109% | 3410 nM | – |
| CN1CCN(C(=O)Nc2cc(C(F)(F)F)cc(C(F)(F)F)c2)C1=O | 0% | > 10000 nM | – |
| O=C(Nc1cccc([N+](=O)[O-])c1)c1cc(Cl)ccc1O | 65% | 172 nM | – |
| Oc1ccc(Cl)cc1CNc1cc(C(F)(F)F)cc(C(F)(F)F)c1 | 122% | 3820 nM | – |
| O=C(Nc1cc([N+](=O)[O-])cc([N+](=O)[O-])c1)c1cc(Cl)ccc1O | 62% | 4350 nM | – |
| Cc1cccc(C(=O)Nc2cc(C(F)(F)F)cc(C(F)(F)F)c2)c1O | 102% | 655 nM | – |
| O=C(Nc1cc(C(F)(F)F)cc(C(F)(F)F)c1)c1cccc([N+](=O)[O-])c1O | 112% | 869 nM | – |
| Cc1cc(C)cc(NC(=O)c2cc(Cl)ccc2O)c1 | 64% | 323 nM | – |
| O=C(Nc1ccc2ncccc2c1)c1ccccc1O | 28% | > 10000 nM | – |
| O=C(Nc1cc(C(F)(F)F)cc(C(F)(F)F)c1)c1cc([N+](=O)[O-])ccc1O | 99% | 2530 nM | – |
| N#Cc1ccc(NC(=O)c2cc(Cl)ccc2O)cc1 | 38% | > 10000 nM | – |
| O=C(NCc1cc(C(F)(F)F)cc(C(F)(F)F)c1)c1cc(Cl)ccc1O | 111% | 1530 nM | – |

| Structure (SMILES) | inhibition [1] | IC50 (P2X purinoceptor 1) | other results |
| --- | --- | --- | --- |
| NS(=O)(=O)c1cccc(NC(=O)c2ccccc2O)c1 | 21% | > 10000 nM | – |
| O=C(Nc1ccc(F)cc1)c1cc(Cl)ccc1O | 93% | 907 nM | – |
| O=C(CNc1cc(C(F)(F)F)cc(C(F)(F)F)c1)c1cc(Cl)ccc1O | 104% | 1790 nM | – |
| O=C(Nc1cc(Cl)ccc1O)c1cc(C(F)(F)F)cc(C(F)(F)F)c1 | 48% | ≥ 10000 nM | – |
| O=C(Nc1ccc([N+](=O)[O-])cc1)c1cc(Cl)ccc1O | 43% | – | – |
| COc1cc(NC(=O)c2cc(Cl)ccc2O)cc(OC)c1 | 80% | 915 nM | – |
| O=C(Nc1cc(C(F)(F)F)cc(C(F)(F)F)c1)c1ccccc1[N+](=O)[O-] | 61% | 8600 nM | – |
| O=C(Nc1cc(C(F)(F)F)cc(C(F)(F)F)c1)c1cnccc1O | 31% | > 10000 nM | – |
| O=C(Nc1cc(C(F)(F)F)cc(C(F)(F)F)c1)c1cc(F)ccc1O | 96% | 1660 nM | – |
| C#Cc1cccc(NC(=O)c2cc(Cl)ccc2O)c1 | 60% | 1340 nM | – |
| O=C(Nc1cc(C(F)(F)F)cc(C(F)(F)F)c1)c1ccc2ccccc2c1O | – | 341 nM | IC50 (P2X purinoceptor 4): 729 nM; IC50 (P2X purinoceptor 2): > 10000 nM; IC50 (P2X purinoceptor 7): 797 nM |
| CC(C)(C)c1cccc(NC(=O)c2cc(Cl)ccc2O)c1 | 100% | 567 nM | – |
| O=C(Nc1ccc2cc[nH]c2c1)c1ccccc1O | 11% | > 10000 nM | – |
| O=C(Nc1ccc(Cl)cc1)c1cc(Cl)ccc1O | 55% | 199 nM | – |
| O=C(Nc1cc(C(F)(F)F)cc(C(F)(F)F)c1)c1cccnc1O | 9% | > 10000 nM | – |
| O=C(Nc1ccccc1C(F)(F)F)c1cc(Cl)ccc1O | 28% | > 10000 nM | – |
| O=C(Nc1cccnc1)c1ccccc1O | 3% | > 10000 nM | – |
| O=C(Nc1cccc(C(F)(F)F)c1)c1ccccc1O [SALFLUVERINE] | 75% | 1300 nM | – |
| O=C(Nc1cc(C(F)(F)F)cc(C(F)(F)F)c1)c1cccc(Cl)c1 | 82% | 139000 nM | – |
| O=C(Nc1cc(C(F)(F)F)cc(C(F)(F)F)c1)c1ccccc1CO | 37% | > 10000 nM | – |
| O=C(Nc1cc(O)cc(O)c1)c1cc(Cl)ccc1O | 4% | > 10000 nM | – |
| O=C(Nc1cc(C(F)(F)F)cc(C(F)(F)F)c1)c1cccc(C(F)(F)F)c1 | 63% | 7180 nM | – |
